How the values were obtained:
PI3Kalpha = molecular target: T1, PI3Kalpha (Homo sapiens, UniProt P42336); experiment: Cell-free kinase assay (ALPHA technology), PI3Kalpha; type: biochemical; details: at 100 μM ATP; recombinant human kinase
T1 construct: partly as full-length kinases, partly as shortened fragments, but at least consisting of the functional kinase domains; purchased Upstate 14-602
Procedure: The inhibitory effect of the compounds according to the invention was tested on various serine/threonine, tyrosine and lipid kinases in enzymatic assays. Recombinant human kinases such as, for example, Erk2, PI3Kalpha and others were used in this case, partly as full-length kinases, partly as shortened fragments, but at least consisting of the functional kinase domains. The commercial kinase proteins (Proqinase, Upstate) were used as recombinant fusion proteins with GST (glutathion-S-transferase) or His-Tag. Depending on the type of substrate, the various kinase reactions were quantified by means of suitable ALPHA™ beads (Perkin-Elmer).
The substance testing is described in detail hereinafter for the Erk assay. To determine the IC50 value, the potential inhibitor substances were investigated in 10 semi-logarithmically graded concentrations of 3.16 nM-100 μM.
b) PI3K-ALPHAs (e.g. PI3Kalpha): the test substance, 1 ng PI3Kalpha (#14-602, Upstate), 100 μM ATP and 20 μM PIP2 substrate (#64910, Cayman Chemicals) were incubated on a 384-well Optiplate (Perkin-Elmer) for 1 h in 50 mM Hepes, 50 mM NaCl, 5 mM MgCl2, 0.05% Chaps, 5 mM DTT at pH 7.4. The kinase reaction was then stopped by adding ALPHA bead mixes (10 μg/ml, #6760603/Perkin-Elmer) pre-incubated with 1 nM GST:Grp1 fusion protein (Upstate) and 15 nM biotinylated PIP3 (#10009531, Cayman Chemicals) in 50 mM Hepes, 50 mM NaCl, 50 mM EDTA and 0.1% BSA and left to stand overnight.
The fluorescence was detected the following morning in a Envision plate reader (Perkin-Elmer).
The %-inhibition values per substance concentration were calculated by means of the following formula from the raw data determined in the Envision plate reader:
Eight determinations were made for each control and two for the substance samples. The 0% control either contains no ATP or no substrate, the 100% control (fully active kinase) contains no test substance. The IC50 values were determined using GraphPadPrism.

Hct116 = experiment: XTT assay, anti-proliferative effect; type: cell-based; details: Homo sapiens, HCT-116; Hct116 cells, ~48 h incubation
Procedure: The principle of this test is based on the intracellular reduction of the tetrazolium dye XTT (sodium 3′-[1-(phenylaminocarbonyl)-3,4-tetrazolium]-bis(4-methoxy-6-nitro)benzene sulfonic acid, Sigma) to a formazan dye by mitochondrial dehydrogenases. The dye is only formed by metabolically active cells and its photometrically measurable intensity is a quantitative indicator for the presence of living cells. The reduction of dye formation by incubation of the cells with substances serves as a parameter for the anti-proliferative effect.
The tumour cell lines (ATCC) were injected into 96-well microtitre plates in a defined cell number (1250 cells/well for Hct116) and then incubated overnight in an incubator at 37° C., 5% CO2 and 95% air humidity. The test substances were prepared as stock solutions (10 mM) in DMSO. To determine the EC50 values the potential inhibitor substances were added to the cells in half-logarithmically graded dilutions, resulting in final concentrations of 1.58 nM-50 μM. The cell plates were then incubated for ˜48 h in an incubator at 37° C., 5% CO2 and 95% air humidity.
For the detection reaction the substrate XTT was mixed with PMS (N-Methyl dibenzopyrazine methylsulfate, Sigma) and added to the cells so that a final concentration of 325 μg XTT/ml and 2.5 μg PMS/ml was obtained. It was then incubated for 3 h at 37° C., 95% air humidity. The formazan salt formed by the cellular dehydrogenases could then be quantified by adsorption at 490 nm.
The % inhibition value was evaluated by means of the following formula from the values for the optical densities measured in each case at 490 nm:
Eight determinations were made for each control and two for the substance samples. The 0% control contains no cells, the 100% control (proliferation control) contains no test substance. The EC50 values were determined using GraphPadPrism.

Erk2 = molecular target: T2, Erk2; experiment: Cell-free kinase assay (ALPHA technology), Erk2; type: biochemical; details: at 10 μM ATP; recombinant human kinase
T2 construct: partly as full-length kinases, partly as shortened fragments, but at least consisting of the functional kinase domains; purchased Upstate 14-173
T2 sequence (P63085 2-358 limits assumed): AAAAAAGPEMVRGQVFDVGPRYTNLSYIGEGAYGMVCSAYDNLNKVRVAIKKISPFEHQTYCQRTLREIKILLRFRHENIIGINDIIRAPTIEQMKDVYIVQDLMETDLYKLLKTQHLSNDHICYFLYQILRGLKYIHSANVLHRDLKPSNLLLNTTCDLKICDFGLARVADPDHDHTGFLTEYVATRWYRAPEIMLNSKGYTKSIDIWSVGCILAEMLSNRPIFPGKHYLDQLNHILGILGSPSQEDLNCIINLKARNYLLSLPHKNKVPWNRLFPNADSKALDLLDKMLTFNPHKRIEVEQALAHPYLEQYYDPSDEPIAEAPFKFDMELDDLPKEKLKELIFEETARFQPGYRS

T1 sequence (P42336 whole entry, the tested form may be a part): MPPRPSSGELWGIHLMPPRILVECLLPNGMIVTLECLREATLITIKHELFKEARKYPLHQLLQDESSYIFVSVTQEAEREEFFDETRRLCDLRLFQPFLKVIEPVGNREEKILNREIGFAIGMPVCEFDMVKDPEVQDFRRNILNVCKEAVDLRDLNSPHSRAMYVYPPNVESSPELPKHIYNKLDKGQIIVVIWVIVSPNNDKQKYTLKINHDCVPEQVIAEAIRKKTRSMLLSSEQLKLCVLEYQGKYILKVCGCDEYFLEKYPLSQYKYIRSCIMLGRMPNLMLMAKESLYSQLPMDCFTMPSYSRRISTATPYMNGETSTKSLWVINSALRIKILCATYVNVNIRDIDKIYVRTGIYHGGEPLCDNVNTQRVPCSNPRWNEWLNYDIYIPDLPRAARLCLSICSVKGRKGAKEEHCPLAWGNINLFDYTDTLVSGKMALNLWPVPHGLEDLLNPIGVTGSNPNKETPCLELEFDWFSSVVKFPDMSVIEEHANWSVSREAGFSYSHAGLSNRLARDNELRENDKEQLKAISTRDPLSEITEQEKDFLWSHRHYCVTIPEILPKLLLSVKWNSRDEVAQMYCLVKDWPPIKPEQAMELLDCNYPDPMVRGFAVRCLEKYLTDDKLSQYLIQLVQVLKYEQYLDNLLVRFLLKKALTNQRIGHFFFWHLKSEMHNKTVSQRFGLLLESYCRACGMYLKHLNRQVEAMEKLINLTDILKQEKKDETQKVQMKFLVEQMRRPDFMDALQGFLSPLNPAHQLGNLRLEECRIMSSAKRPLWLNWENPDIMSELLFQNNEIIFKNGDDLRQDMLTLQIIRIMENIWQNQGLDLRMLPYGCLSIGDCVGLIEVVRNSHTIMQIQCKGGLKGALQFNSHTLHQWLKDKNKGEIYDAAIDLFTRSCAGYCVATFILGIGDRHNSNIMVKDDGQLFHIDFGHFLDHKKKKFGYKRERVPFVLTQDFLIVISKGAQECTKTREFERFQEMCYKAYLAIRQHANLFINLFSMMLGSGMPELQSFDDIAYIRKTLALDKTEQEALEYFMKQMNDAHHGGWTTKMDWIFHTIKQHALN
T1 sequence (P27986 whole entry partner, the tested form may be a part): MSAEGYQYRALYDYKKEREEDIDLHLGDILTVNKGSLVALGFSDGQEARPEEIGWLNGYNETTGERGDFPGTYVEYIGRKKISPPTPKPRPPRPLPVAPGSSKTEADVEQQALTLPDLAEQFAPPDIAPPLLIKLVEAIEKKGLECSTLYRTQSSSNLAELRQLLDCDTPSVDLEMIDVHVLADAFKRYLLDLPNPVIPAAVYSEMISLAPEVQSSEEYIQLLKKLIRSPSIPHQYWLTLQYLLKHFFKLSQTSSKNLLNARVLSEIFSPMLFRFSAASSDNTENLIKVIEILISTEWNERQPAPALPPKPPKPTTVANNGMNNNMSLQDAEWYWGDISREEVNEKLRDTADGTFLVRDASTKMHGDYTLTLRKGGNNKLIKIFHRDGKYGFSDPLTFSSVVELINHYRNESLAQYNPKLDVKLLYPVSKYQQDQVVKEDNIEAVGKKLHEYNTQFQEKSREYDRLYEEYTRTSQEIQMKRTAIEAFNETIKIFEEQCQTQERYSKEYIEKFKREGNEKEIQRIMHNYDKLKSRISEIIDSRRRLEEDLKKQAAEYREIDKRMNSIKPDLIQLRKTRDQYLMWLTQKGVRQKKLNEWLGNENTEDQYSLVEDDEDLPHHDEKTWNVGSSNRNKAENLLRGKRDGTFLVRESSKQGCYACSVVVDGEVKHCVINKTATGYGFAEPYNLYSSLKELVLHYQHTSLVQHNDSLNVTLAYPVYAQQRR

| SMILES | IC50 (PI3Kalpha) [µM] | melting point [°C] | EC50 (Hct116) [µM] | IC50 (Erk2) [µM] |
| --- | --- | --- | --- | --- |
| CCNC(=S)Nc1ccc2ncc(-c3cnn(Cc4cccc(OC)c4)c3)nc2n1 [Compound 40, 1-Ethyl-3-{3-[1-(3-methoxy-benzyl)-1H-pyrazol-4-yl]-pyrido[2,3-b]pyrazin-6-yl}-thiourea] | 0.168 | 217 to 220 | 2.57 | 0.336 |
| CCNC(=S)Nc1ccc2ncc(-c3cnn(Cc4ccccc4)c3)nc2n1 [Compound 45, 1-[3-(1-Benzyl-1H-pyrazol-4-yl)-pyrido[2,3-b]pyrazin-6-yl]-3-ethyl-thiourea] | 0.249 | 252 | 1.95 | 0.272 |
| CCNC(=S)Nc1ccc2ncc(-c3cnn(Cc4ccc(OC)c(OC)c4)c3)nc2n1 [Compound 28, 1-{3-[1-(3,4-Dimethoxy-benzyl)-1H-pyrazol-4-yl]-pyrido[2,3-b]pyrazin-6-yl}-3-ethyl-thiourea] | 0.082 | 213 | 1.65 | 0.112 |
| CCNC(=O)Nc1ccc2ncc(-c3cnn(Cc4ccc(OC)c(OC)c4)c3)nc2n1 [Compound 42, 1-{3-[1-(3,4-Dimethoxy-benzyl)-1H-pyrazol-4-yl]-pyrido[2,3-b]pyrazin-6-yl}-3-ethyl-urea] | 0.274 | 205 | 1.98 | 0.043 |
| CCNC(=S)Nc1ccc2ncc(-c3cnn(Cc4cccc(OC(F)F)c4)c3)nc2n1 [Compound 27, 1-{3-[1-(3-Difluoromethoxy-benzyl)-1H-pyrazol-4-yl]-pyrido[2,3-b]pyrazin-6-yl}-3-ethyl-thiourea] | 0.059 |  | 1.53 | 0.75 |
| CCNC(=S)Nc1ccc2ncc(-c3cnn(Cc4cccc(S(C)(=O)=O)c4)c3)nc2n1 [Compound 65, 1-Ethyl-3-{3-[1-(3-methanesulfonyl-benzyl)-1H-pyrazol-4-yl]-pyrido[2,3-b]pyrazin-6-yl}-thiourea] | 0.18 |  | 2.11 | 0.225 |
| CCNC(=S)Nc1ccc2ncc(-c3cnn(Cc4ccc(O)cc4)c3)nc2n1 [Compound 210, 1-Ethyl-3-{3-[1-(4-hydroxy-benzyl)-1H-pyrazol-4-yl]-pyrido[2,3-b]pyrazin-6-yl}-thiourea] | 0.208 | 257 | 1.7 | 0.225 |
| CCNC(=S)Nc1ccc2ncc(-c3cnn(Cc4ccc5c(c4)OCO5)c3)nc2n1 [Compound 5, 1-[3-(1-Benzo[1,3]dioxol-5-ylmethyl-1H-pyrazol-4-yl)-pyrido[2,3-b]pyrazin-6-yl]-3-ethyl-thiourea] |  | 244 |  |  |
| CCNC(=S)Nc1ccc2ncc(-c3cnn(Cc4cccc(C)c4)c3)nc2n1 [Compound 41, 1-Ethyl-3-{3-[1-(3-methyl-benzyl)-1H-pyrazol-4-yl]-pyrido[2,3-b]pyrazin-6-yl}-thiourea] | 0.184 | 258 to 261 | 3.01 | 0.4 |
| CCNC(=S)Nc1ccc2ncc(-c3cnn(Cc4cccc(OCc5ccccc5)c4)c3)nc2n1 [Compound 21, 1-{3-[1-(3-Benzyloxy-benzyl)-1H-pyrazol-4-yl]-pyrido[2,3-b]pyrazin-6-yl}-3-ethyl-thiourea] |  | 203 to 205 |  |  |
| COCCNC(=S)Nc1ccc2ncc(-c3cnn(Cc4ccccc4)c3)nc2n1 [Compound 31, 1-[3-(1-Benzyl-1H-pyrazol-4-yl)-pyrido[2,3-b]pyrazin-6-yl]-3-(2-methoxy-ethyl)-thiourea] |  | 219 |  |  |
| COCCNC(=S)Nc1ccc2ncc(-c3cnn(Cc4cccc(OC)c4)c3)nc2n1 [Compound 32, 1-{3-[1-(3-Methoxy-benzyl)-1H-pyrazol-4-yl]-pyrido[2,3-b]pyrazin-6-yl}-3-(2-methoxy-ethyl)-thiourea] |  | 215 |  |  |
| CCNC(=O)Nc1ccc2ncc(-c3cnn(CCNC(=O)OC(C)(C)C)c3)nc2n1 [Compound 406, (2-{4-[6-(3-Ethyl-ureido)-pyrido[2,3-b]pyrazin-3-yl]-pyrazol-1-yl}ethyl)-carbamic acid tert-butyl ester] |  | 235 |  |  |
| CCNC(=S)Nc1ccc2ncc(-c3cnn(Cc4cccc(OCC)c4)c3)nc2n1 [Compound 49, 1-{3-[1-(3-Ethoxy-benzyl)-1H-pyrazol-4-yl]-pyrido[2,3-b]pyrazin-6-yl}-3-ethyl-thiourea] |  | 222 |  |  |
| CCNC(=S)Nc1ccc2ncc(-c3cnn(Cc4ccc(O)c(OC)c4)c3)nc2n1 [Compound 55, 1-Ethyl-3-{3-[1-(4-hydroxy-3-methoxy-benzyl)-1H-pyrazol-4-yl]-pyrido[2,3-b]pyrazin-6-yl}-thiourea] | 0.391 | 242 |  | 0.523 |
| CCNC(=O)Nc1ccc2ncc(-c3ccoc3)nc2n1 [Compound 432, 1-Ethyl-3-(3-furan-3-yl-pyrido[2,3-b]pyrazin-6-yl)-urea] |  | 240 |  |  |
| CCNC(=S)Nc1ccc2ncc(-c3cnn(Cc4cccc(C)c4F)c3)nc2n1 [Compound 48, 1-Ethyl-3-{3-[1-(2-fluoro-3-methyl-benzyl)-1H-pyrazol-4-yl]-pyrido[2,3-b]pyrazin-6-yl}-thiourea] |  | 242 to 245 |  |  |
| CCNC(=S)Nc1ccc2ncc(-c3cnn(Cc4cccc(OC)c4OC)c3)nc2n1 [Compound 26, 1-{3-[1-(2,3-Dimethoxy-benzyl)-1H-pyrazol-4-yl]-pyrido[2,3-b]pyrazin-6-yl}-3-ethyl-thiourea] |  | 218 to 222 |  |  |
| CCNC(=S)Nc1ccc2ncc(-c3cnn(CCCc4ccccc4)c3)nc2n1 [Compound 44, 1-Ethyl-3-{3-[1-(3-phenyl-propyl)-1H-pyrazol-4-yl]-pyrido[2,3-b]pyrazin-6-yl}-thiourea] |  | 206 to 208 |  |  |
| CCNC(=S)Nc1ccc2ncc(-c3cnn(Cc4cccc(O)c4)c3)nc2n1 [Compound 36, 1-Ethyl-3-{3-[1-(3-hydroxy-benzyl)-1H-pyrazol-4-yl]-pyrido[2,3-b]pyrazin-6-yl}-thiourea] |  | 239 |  |  |
| CCNC(=O)Nc1ccc2ncc(-c3cnn(Cc4ccc(OC(F)(F)F)cc4)c3)nc2n1 [Compound 6, 1-Ethyl-3-{3-[1-(4-trifluoromethoxy-benzyl)-1H-pyrazol-4-yl]-pyrido[2,3-b]pyrazin-6-yl}-urea] |  | 231 |  |  |
| CCNC(=O)Nc1ccc2ncc(-c3cnn(CCC(N)=O)c3)nc2n1 [Compound 404, 3-{4-[6-(3-Ethyl-ureido)-pyrido[2,3-b]pyrazin-3-yl]-pyrazol-1-yl}-propionamide] |  | 247 |  |  |
| CCNC(=S)Nc1ccc2ncc(-c3cnn(Cc4cccc(OC)c4F)c3)nc2n1 [Compound 29, 1-Ethyl-3-{3-[1-(2-fluoro-3-methoxy-benzyl)-1H-pyrazol-4-yl]-pyrido[2,3-b]pyrazin-6-yl}-thiourea] | 0.112 | 215 to 220 | 2.56 | 0.492 |

From patent US8912189B2, “Pyridopyrazine derivatives and their use” (Aeterna Zentaris GmbH, priority 2011, dated 2014)
